{"source": "patent US8497249B1", "about": "“Fungicidal properties of three saponins from Capsicum frutescens” (The United States of America, as represented by the …, priority 2008, dated 2013)", "key": {"[1]": {"test_system": "Fusarium oxysporum", "assay": "Conidial viability bioassay (30 min incubation, colony enumeration)", "assay_type": "cell-based", "parameters": "key: —: No viability reduction observed", "protocol": "(§1) Bioassays were performed as described earlier (De Lucca et al. 2002, 2006b, supra). The test fungi (Aspergillus flavus, A. niger, A. fumigatus, Fusarium oxysporum, F. solani, and F. verticilioides (formerly F. moniliforme) were grown on potato dextrose agar (Difco, Detroit, Mich.) slants for seven days (30° C.). When needed, conidia were suspended in 1% potato dextrose broth (Difco, Detroit, Mich.), pH 5.2 (PDB). Using a hemocytometer, stock suspension concentrations were determined and final (working) concentrations of 3×10^4 conidia/ml were prepared. Following preparation of the conidia, a sample of nongerminated conidia was immediately used in the bioassay to determine the effect of the saponins on nongerminated conidia. An additional conidial sample for each fungus was incubated for 8 hr at 30° C. These conidia were used in bioassays to determine activity of the saponins against germinating conidia.\n(§2) Individual bioassays consisted of conidia (25 μl), PDB, and the appropriate amount of a mixture of CAY-1, 1081 and 919. The CAY-1 control (CAY-1 alone) bioassays measuring the fungicidal response against the same fungi were performed in a similar manner. Final test volumes were 250 μl. […]\n(§3) Statistical analyses were performed on the data using SigmaStat 3.1 (Systat, Point Richmond, Calif.). Significance (p<0.001) was determined between viability control and test saponin data."}, "[2]": {"test_system": "F. verticilioides (formerly F. moniliforme)", "assay": "Conidial viability bioassay (30 min incubation, colony enumeration)", "assay_type": "cell-based, Fusarium verticilioides", "parameters": "key to Lowest concentration showing significant (p < 0.001) viability reduction: CAY-1 Control / Total Weight of mixture: —: No viability reduction observed", "conditions": "for Lowest concentration showing significant (p < 0.001) viability reduction: CAY-1 Control / Total Weight of mixture: 30 min incubation", "protocol": "as §1\n(§4) Individual bioassays consisted of conidia (25 μl), PDB, and the appropriate amount of a mixture of CAY-1, 1081 and 919. The CAY-1 control (CAY-1 alone) bioassays measuring the fungicidal response against the same fungi were performed in a similar manner. Final test volumes were 250 μl. Controls consisted of conidia and PDB medium.\n(§5) After a 30 min incubation period (30° C.), aliquots (50 μl) of each sample were spread on each of four potato dextrose agar plates. The plates were incubated for 48 hours at 30° C., followed by colony enumeration. Three separate runs per conidial type and fungus were performed (n=12).\nas §3"}, "[3]": {"test_system": "A. fumigatus", "assay": "Conidial viability bioassay (30 min incubation, colony enumeration)", "assay_type": "cell-based, Aspergillus fumigatus", "parameters": "key: —: No viability reduction observed", "protocol": "as §1, §2, §3"}, "[4]": {"test_system": "germinating conidia of A. flavus", "conditions": "within five minutes of the initiation of incubation; De Lucca et al., 2002; cited from earlier work"}, "[5]": {"test_system": "Aspergillus flavus", "assay": "Conidial viability bioassay (30 min incubation, colony enumeration)", "assay_type": "cell-based", "parameters": "key to Lowest concentration showing significant (p < 0.001) viability reduction: CAY-1 Control / Total Weight of mixture: —: No viability reduction observed", "conditions": "for Lowest concentration showing significant (p < 0.001) viability reduction: CAY-1 Control / Total Weight of mixture: 30 min incubation; for Reduction of conidial viability / fungicidal activity (in words): FIG. 2A", "protocol": "as §1, §4, §5, §3"}, "[6]": {"test_system": "germinating conidia of A. flavus", "assay": "Time of fungicidal activity (time course study)", "assay_type": "cell-based, Aspergillus flavus", "conditions": "after 5 minutes of incubation; total weight 12.67 μg/ml (4:3:3: 12.64 μg/ml)", "protocol": "as §1, with “Detroit, Mich.) […] for seven” for “Detroit, Mich.) slants for seven”, “germinating conidia. Individual bioassays consisted of conidia (25 μl), PDB, and the appropriate amount of a mixture of CAY-1, 1081 and 919. The CAY-1 control (CAY-1 alone) bioassays measuring the fungicidal response against the same fungi were performed in a similar manner. Final test volumes were 250 μl. […] Time of fungicidal activity for the saponin mixtures was determined by using the germinating conidia of A. flavus. […] Significance (p<0.001) was determined between viability control and test saponin data.” for “germinating conidia.”"}, "[7]": {"test_system": "fungi of agricultural and medical importance", "conditions": "pure saponin; De Lucca et al. 2002, 2006b and others; cited from earlier work"}, "[8]": {"test_system": "Fusarium species", "assay": "Conidial viability bioassays, Fusarium species", "assay_type": "cell-based", "conditions": "nongerminated conidia of the tested Fusarium isolates", "protocol": "as §1, §4\nAfter a 30 min incubation period (30° C.), aliquots (50 μl) of each sample were spread on each of four potato dextrose agar plates. […]"}, "[9]": {"test_system": "A. niger", "assay": "Conidial viability bioassay (30 min incubation, colony enumeration)", "assay_type": "cell-based, Aspergillus niger", "parameters": "key to Lowest concentration showing significant (p < 0.001) viability reduction: CAY-1 Control / Total Weight of mixture: —: No viability reduction observed", "conditions": "for Lowest concentration showing significant (p < 0.001) viability reduction: CAY-1 Control / Total Weight of mixture: 30 min incubation; for Reduction of conidial viability / fungicidal activity (in words): FIG. 2C", "protocol": "as §1, §4, §5, §3"}, "[10]": {"test_system": "F. solani", "assay": "Conidial viability bioassay (30 min incubation, colony enumeration)", "assay_type": "cell-based, Fusarium solani", "parameters": "key to Lowest concentration showing significant (p < 0.001) viability reduction: CAY-1 Control / Total Weight of mixture: —: No viability reduction observed", "conditions": "for Lowest concentration showing significant (p < 0.001) viability reduction: CAY-1 Control / Total Weight of mixture: 30 min incubation; for Reduction of conidial viability / fungicidal activity (in words): FIG. 2F", "protocol": "as §1, §4, §5, §3"}, "[11]": {"test_system": "Aspergillus flavus, A. fumigatus and A. niger", "conditions": "in vitro; De Lucca et al. 2006a; cited from earlier work"}, "[12]": {"conditions": "germinating conidia, listed as CAY-1 control"}, "[13]": {"conditions": "germinating conidia, listed as CAY-1 controls"}}}
{"smiles": "CC1CCC2(OC1)OC1CC3C4CCC5CC(OC6OC(CO)C(OC7OC(CO)C(O)C(OC8OC(CO)C(O)C(OC9OC(CO)C(O)C(O)C9O)C8O)C7OC7OC(CO)C(O)C(O)C7O)C(O)C6O)C(O)CC5(C)C4CCC3(C)C1C2C", "note": "(stereo not shown) [CAY-1]", "values": [{"measurement": "Lowest concentration showing significant (p < 0.001) viability reduction: CAY-1 Control / Total Weight of mixture", "setting": "[1]; germinating conidia", "value": "—"}, {"measurement": "Lowest concentration showing significant (p < 0.001) viability reduction: CAY-1 Control / Total Weight of mixture", "setting": "[1]; nongerminated conidia", "value": "—"}, {"measurement": "Lowest concentration showing significant (p < 0.001) viability reduction: CAY-1 Control / Total Weight of mixture", "setting": "[2]; germinating conidia", "value": "—"}, {"measurement": "Reduction of conidial viability / fungicidal activity (in words)", "setting": "[2]; germinating conidia, FIG. 2D", "value": "inactive"}, {"measurement": "Lowest concentration showing significant (p < 0.001) viability reduction: CAY-1 Control / Total Weight of mixture", "setting": "[2]; nongerminated conidia", "value": "—"}, {"measurement": "Lowest concentration showing significant (p < 0.001) viability reduction: CAY-1 Control / Total Weight of mixture", "setting": "[3]; germinating conidia", "value": "—"}, {"measurement": "Lowest concentration showing significant (p < 0.001) viability reduction: CAY-1 Control / Total Weight of mixture", "setting": "[3]; nongerminated conidia", "value": "—"}, {"measurement": "Dose producing significant lethality", "setting": "[4]", "value": 12.4, "unit": "µg/mL"}, {"measurement": "Lowest concentration showing significant (p < 0.001) viability reduction: CAY-1 Control / Total Weight of mixture", "setting": "[5]; germinating conidia", "value": 4.97, "unit": "µg/mL"}, {"measurement": "Reduction of conidial viability / fungicidal activity (in words)", "setting": "[5]; [12]", "value": "significantly (p<0.001) lower viability counts"}, {"measurement": "Reduction of conidial viability / fungicidal activity (in words)", "setting": "[5]; [13]", "value": "significant viability loss"}, {"measurement": "Lowest concentration showing significant (p < 0.001) viability reduction: CAY-1 Control / Total Weight of mixture", "setting": "[5]; nongerminated conidia", "value": "—^#"}, {"measurement": "Activity (in words)", "setting": "[6]", "value": "inactive"}, {"measurement": "Antifungal properties (in words)", "setting": "[7]", "value": "potent fungicidal properties"}, {"measurement": "Reduction of conidial viability (in words)", "setting": "[8]", "value": "not reduced"}, {"measurement": "Lowest concentration showing significant (p < 0.001) viability reduction: CAY-1 Control / Total Weight of mixture", "setting": "[9]; germinating conidia", "value": 6.62, "unit": "µg/mL"}, {"measurement": "Reduction of conidial viability / fungicidal activity (in words)", "setting": "[9]; germinating conidia", "value": "No major differences"}, {"measurement": "Reduction of conidial viability / fungicidal activity (in words)", "setting": "[9]; [12]", "value": "significantly (p<0.001) lower viability counts"}, {"measurement": "Reduction of conidial viability / fungicidal activity (in words)", "setting": "[9]; [13]", "value": "significant viability loss"}, {"measurement": "Lowest concentration showing significant (p < 0.001) viability reduction: CAY-1 Control / Total Weight of mixture", "setting": "[9]; nongerminated conidia", "value": "—"}, {"measurement": "Lowest concentration showing significant (p < 0.001) viability reduction: CAY-1 Control / Total Weight of mixture", "setting": "[10]; germinating conidia", "value": 12.43, "unit": "µg/mL"}, {"measurement": "Reduction of conidial viability / fungicidal activity (in words)", "setting": "[10]; germinating conidia", "value": "significantly fungicidal"}, {"measurement": "Reduction of conidial viability / fungicidal activity (in words)", "setting": "[10]; [13]", "value": "significant viability loss"}, {"measurement": "Lowest concentration showing significant (p < 0.001) viability reduction: CAY-1 Control / Total Weight of mixture", "setting": "[10]; nongerminated conidia", "value": "—"}, {"measurement": "Interaction with Amphotericin B and intraconazole", "setting": "[11]", "value": "additive synergy"}]}
